The text below walks through data of publication PMC7958344, “Development of Novel Inhibitors Targeting the D-Box of the DNA Binding Domain of Androgen Receptor” (International Journal of Molecular Sciences, 2021).

One assay addresses T1, AR-V7 (Homo sapiens, UniProt P10275).
T1 construct: expressed in transfected cells
T1 sequence (P10275 1-644 isoform P10275-3): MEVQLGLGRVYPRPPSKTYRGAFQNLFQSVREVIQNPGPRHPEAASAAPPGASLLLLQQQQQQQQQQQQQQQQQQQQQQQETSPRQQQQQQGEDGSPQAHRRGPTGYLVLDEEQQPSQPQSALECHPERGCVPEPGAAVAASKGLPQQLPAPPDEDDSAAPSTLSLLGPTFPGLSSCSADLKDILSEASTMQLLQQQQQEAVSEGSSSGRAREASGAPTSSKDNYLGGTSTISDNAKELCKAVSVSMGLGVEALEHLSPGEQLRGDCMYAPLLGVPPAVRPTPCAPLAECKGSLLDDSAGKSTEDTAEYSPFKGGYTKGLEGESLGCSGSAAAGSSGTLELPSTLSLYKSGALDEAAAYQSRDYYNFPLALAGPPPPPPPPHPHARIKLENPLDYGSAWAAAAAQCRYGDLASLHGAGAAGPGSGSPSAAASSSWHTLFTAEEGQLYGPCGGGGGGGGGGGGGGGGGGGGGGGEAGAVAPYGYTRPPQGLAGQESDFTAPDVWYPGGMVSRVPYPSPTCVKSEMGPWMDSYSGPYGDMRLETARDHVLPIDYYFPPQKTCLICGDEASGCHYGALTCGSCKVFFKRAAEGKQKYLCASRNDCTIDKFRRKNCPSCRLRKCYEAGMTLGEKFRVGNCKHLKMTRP
The assay is described as follows: AR-V7 transcriptional activity, doxycycline-inducible AR-V7 with ARR3tk-nanoLuciferase reporter in PC3 cells. The format is cell-based. The following applies: for IC50: PC3 doxycycline-inducible AR-V7, ARR3tk-nanoLuciferase reporter, read-out: IC50 for the inhibition of the AR-V7 transcription; for inhibition at 10 µM: PC-3, Supplementary Table 1, read-out: Inhibition Dox-V7 (10 μM). The source says: Compounds were first screened for their inhibition of AR-V7 transcriptional activity. To do so, we created a PC3 cell-based population that stably encodes (i) a doxycycline-inducible AR-V7 cDNA sequence (pLIX402 tet-inducible promoter, puromycin selection), and (ii) the ARR3tk-nanoLuciferase reporter construct. […] This allowed the screening of the compounds without using the error-prone method of transiently transfecting V7 and reporter constructs. The inhibition efficacy of compounds was measured using doxycycline treatment along with an increasing dose of compounds. From this screen, a panel of compounds was identified with some anti-dimerization activity (Supplementary Table S1). […] To rule out direct effects of the compounds on luciferase expression or PC3 cell viability, we used a PC3-dox inducible luciferase cell line in parallel.
(§1) LNCaP cells incorporating an AR2PB-eGFP reporter construct (2 × probasin) are previously described. eGFP and secreted PSA assays were performed as described. The mammalian two-hybrid assay was performed in PC3 cells by co-transfection of 15 ng pA-AR or pB-AR plasmids, with 12.5 ng PG5-NLuc reporter. PC3_iV7_3TKNluc or PC3_iNluc cells were seeded in DMEM +5% CSS at 5000 cells/well for 24 h, followed by adding doxycycline/compounds (18 h) and luminescence measurement. LNCaP and 22rv1 cells were starved in RPMI + CSS (48 h) before cell viability tests using the same conditions as above, followed by 30 μL/well PrestoBlue™ Reagent (1 h) and fluorescence measurement (TECAN F200).

In a further assay the test system is LNCaP cells. As to the kind of experiment: Cell viability (PrestoBlue), LNCaP. The format is cell-based. To be noted: for growth inhibition of LNCaP cell line: result in words. As to the method:
VPC-17160 and VPC-17281 were further evaluated for their potential to inhibit the growth of prostate cancer cell lines LNCaP (AR-FL dependent) and 22rv1 (AR-V7 dependent).
as §1

SMILES strings stand for the structures.

On to `O=C(NCc1cccc2ccccc12)NCC(O)(c1cccs1)c1cccs1` [VPC-17160], for which, on AR-V7, the IC50 was 6 µM and the inhibition at 10 µM came out at 70%. Also, in the assay with LNCaP cells, the “growth inhibition of LNCaP cell line” value is “inhibited the growth”.

For `CC(O)(CNC(=O)C=Cc1ccnc2ccccc12)c1ccsc1` (stereo not shown) [VPC-17281], at AR-V7, the IC50 was 6 µM and the inhibition at 10 µM worked out at 70%. Moreover, the IC50 with LNCaP cells (Homo sapiens, LNCaP (AR-FL dependent), read-out: IC50, cell growth) came to 25 µM. In addition, the “growth inhibition of LNCaP cell line” value in the assay on LNCaP cells was “inhibited the growth”.
